According to a melting point compilation (Tetko et al.; mined from patent text by program, amines drawn as free bases though some values may be those of a salt):

Compared with O=C1CN(c2ncc3ncnc(Nc4ccc(F)c(Cl)c4)c3n2)CCN1, Cc1ccc(C2CN(c3cc4nc5c(cc4cc3F)c(=O)c(C(=O)O)cn5C)CCN2)cc1C (racemic) is higher in melting point: 244 to 246 °C for the first, 276 °C for the second.

First: CCOC(=O)c1ccc(C(F)(F)F)c(Br)n1
Second: CCOC(=O)c1cn2c(cc(OC)c3ccccc32)n1
The melting point of the first is lower: 40 to 40.5 °C for the first, 175 to 176 °C for the second.

First: COc1ccc(CNc2nnc(N3CCC(O)CC3)c3ccc(C#N)cc23)cc1Cl
Second: CC(C)(C)OC(=O)N1CCn2c(Cl)c(-c3cccc(C#N)c3)c(C(N)=O)c2C1
The melting point of the first is lower: 172 to 174 °C for the first, 206 to 208 °C for the second.

First: Nc1cc(-c2cccnc2)cc2nc(-c3ccccc3)nn12
Second: O[C@H](CCc1cccnc1)COc1ccc(-c2cccc(F)c2)cc1
The melting point of the first is higher: 201 to 203 °C for the first, 61 to 62 °C for the second.

First: NC(=O)c1n[nH]c2ccccc12
Second: CCCNC(=O)c1cnc2ccccc2c1O
The melting point of the first is higher: 284 to 286 °C for the first, 210 °C for the second.

First: ClCc1coc(-c2cc3c(s2)CCCC3)n1
Second: CNCC1Cc2c(Cl)cc3c(c2O1)CCC3 (stereo not drawn)
The melting point of the first is higher: 102 to 103 °C for the first, 58 to 60 °C for the second.

First: CCCCCCCCCCOc1ccc(OCc2ccccc2)c(C(=O)N(CC(=O)O)CC(=O)O)c1
Second: CN(CCOc1ccc(CON=C(CCC(=O)O)c2ccccc2)cc1)c1ncccn1
The melting point of the first is higher: 74 to 78 °C for the first, 72 to 73 °C for the second.

Compared with COc1ccc(-n2cnc3c(O)nc4ccccc4c32)cc1, COc1ccc(-n2nc(Sc3ccc(C)c(C)c3)c(C)c(C#N)c2=O)cc1 is lower in melting point: greater than 300 °C for the first, 158 to 160 °C for the second.

First: CC(C)(C)c1ccc(-c2sc(N)c(C(=O)c3ccc(Cl)cc3)c2CN(C2CCCCC2)C2CCCCC2)cc1
Second: Cc1cc(C(=O)c2ccc(Cl)cc2)ccc1N
The melting point of the first is higher: 180 to 184 °C for the first, 113 to 116 °C for the second.

First: COc1ccc(C)c(NC(=O)CCl)c1
Second: Cc1cc(C)cc(NC(=O)CO)c1
The melting point of the first is lower: 89 to 91 °C for the first, 114 °C for the second.

First: Cc1cc(Cl)ccc1NC(=O)C(=O)N1CCC(Cc2ccccc2)CC1
Second: Cc1nnc(CN2CCCC2)n1-c1ccc(Cl)cc1C(=O)c1ccccc1
The melting point of the first is lower: 105 to 108 °C for the first, 174 to 176 °C for the second.

Compared with COc1ccc(C=C(C=O)C(C=O)=Cc2ccc(OC)c(OC)c2)cc1OC, COc1cc(/C=C/CO)cc(OC)c1OCc1ccccc1 is lower in melting point: 149 to 150 °C for the first, 72 to 73 °C for the second.

Compared with NCCOc1ccncc1, C=C(C)C(=O)OCCOCc1ccc(O)c2ncccc12 is lower in melting point: 108 to 112 °C for the first, 90 to 91 °C for the second.

First: COc1ccc(S(=O)(=O)N2c3ccccc3-c3ccc(F)cc3[C@@H]2C)cc1
Second: COc1ccc2ccc3[nH]c4ccc5ccc(OC)cc5c4c3c2c1
The melting point of the first is higher: 197 to 198 °C for the first, 133 °C for the second.

Compared with CCCCOc1c(CN2C(=O)c3ccccc3C2=O)n(CCC(=O)N2CCCC2)c(=O)c2cc(Cl)c(Cl)cc12, CC(Cc1cccc([N+](=O)[O-])c1)(NC(=O)CN1C(=O)c2ccccc2C1=O)c1ccccc1 (stereo not drawn) is lower in melting point: 222 °C for the first, 172 to 173 °C for the second.

First: Fc1ccc(CCN2CCC(n3ccc4ccc(Br)cc43)CC2)cc1
Second: O=c1cc(N2CCSCC2)oc2c1ccc1ccccc12
The melting point of the first is lower: 99 to 101 °C for the first, 171 to 173 °C for the second.

First: O=C(c1nc(-c2ccc(F)cc2)c(-c2ccc(F)cc2)[nH]1)C(F)(F)F
Second: CCn1nc(-c2ccc(F)cc2)c(C(C)=O)c(Nc2cccc3cccnc23)c1=O
The melting point of the first is higher: 214 to 216 °C for the first, 154 °C for the second.

First: Cc1cc(O)ccc1NCCc1ccccn1
Second: COc1ccc(C(=O)c2ccccn2)cc1CCl
The melting point of the first is higher: 138 to 140 °C for the first, 92 to 94 °C for the second.

First: Cc1ccc(OCC(O)CNC(C)(C)C)c(C2=NNC(=O)CC2)c1 (stereo not drawn)
Second: CC(C)(C)OC(=O)N1CCc2ccccc2CC1
The melting point of the first is higher: 126 to 128 °C for the first, 88 to 89 °C for the second.

Compared with Cc1nc2cc3c(cc2c(=O)[nH]1)C(N(C)c1ccc(C(=O)NC(CCC(=O)NC(C(=O)O)c2ccc(CC(=O)O)cc2)C(=O)O)c(F)c1)CC3 (stereo not drawn), Cc1c(N2CCN(Cc3ccccc3)C(C)C2)c(F)cc2c(=O)c(C(=O)O)cn(C3CC3)c12 (stereo not drawn) is lower in melting point: 175 to 177 °C for the first, 170 to 171 °C for the second.

Compared with CCCCCCCCNc1nc(C=O)cs1, CC(=O)Nc1nc(CCc2ccc(N)cc2)cs1 is higher in melting point: 60 to 62 °C for the first, 102 to 104 °C for the second.

Compared with CCCC1(Br)Cc2c(c(C)c(C)c3oc(C(=O)O)cc23)C1=O (stereo not drawn), CC1(C)Cc2sc(C(=O)O)cc2C1=O is lower in melting point: 233 °C for the first, 124 to 125 °C for the second.

First: CN1CCN(c2ccc(Nc3nc(N)c(C(=O)c4c(F)cccc4C(F)(F)F)s3)cc2)CC1
Second: Cc1onc(-c2ccccc2)c1C(=O)NCCCN1CCN(c2cc(F)ccc2OCC(F)(F)F)CC1
The melting point of the first is higher: 155 to 158 °C for the first, 123 to 125 °C for the second.

First: CN(C)C(=O)C(C)(C)c1cn2nc(Cl)ccc2n1
Second: CN(C)c1ccc(C=NO)c([N+](=O)[O-])c1
The melting point of the first is higher: 149 to 151 °C for the first, 140 to 143 °C for the second.

Compared with COc1cc2c3c(c1O)C1(C=CC(=O)C=C1)CC3N(C)CC2 (stereo not drawn), O=C1c2c(cc(O)c(Cl)c2Cl)CC1(c1ccccc1)C1CCCC1 (stereo not drawn) is lower in melting point: 225 °C for the first, 161 to 170 °C for the second.

First: O=C(O)COCCC1CCN(c2cnc(-c3ccccc3)c(-c3ccccc3)n2)CC1
Second: CCOc1nn(-c2ccc(C(F)(F)F)cn2)cc1CCCCOc1ccccc1CC(=O)O
The melting point of the first is higher: 173 to 174 °C for the first, 109 to 110 °C for the second.

First: C/C(=C(\C#N)C(N)=S)N1CCCN(c2ccc(Br)cc2)CC1
Second: CCOC(=O)c1ccc(N2CCN(Cc3cnc4c(c3)NC(=O)[C@@H]3CCCN43)CC2)cc1
The melting point of the first is lower: 152 to 155 °C for the first, 242 °C for the second.

Compared with COc1cc(C(C)=O)cc(OC)c1OC(C)=O, COC(=O)c1cc(CCN(C)CCCC(C#N)(c2ccc(OC)c(OC)c2)C(C)C)cc(C(=O)OC)c1 (stereo not drawn) is lower in melting point: 145 °C for the first, 100 to 103 °C for the second.

First: O=C(O)c1cc(Br)nn1-c1ncccc1Cl
Second: CC(=O)Nc1nc(N)nnc1-c1cccc(Cl)c1Cl
The melting point of the first is lower: 200 to 201 °C for the first, 250 to 252 °C for the second.

Compared with CSc1nc(N)c(C#N)nc1C#N, Cc1cc(-c2ccc(F)cc2)nc(O)n1 is higher in melting point: 250 to 252 °C for the first, 265 to 268 °C for the second.

Compared with CCn1cc(C(=O)O)c(=O)c2cc(Cl)c(N3CCNCC3)cc21, CCOC(=O)c1c2n(c3cc(Cl)c(Cl)cc3c1=O)CCS2 is higher in melting point: 228 to 232 °C for the first, 255 to 257 °C for the second.

First: Cc1oc(-c2ccccc2)nc1Cc1cc2cc(/C=C/CO)ccc2o1
Second: OCC=Cc1ccc(-c2cnc(CSCCOc3ccccc3)o2)cc1
The melting point of the first is higher: 156 to 157 °C for the first, 73 to 74 °C for the second.

First: CN(C)S(=O)(=O)Cc1ccccc1C(=O)O
Second: CN(c1cccc2cc(-c3nc(CC(=O)O)cs3)[nH]c12)S(=O)(=O)c1cccs1
The melting point of the first is lower: 112 to 119 °C for the first, 214 to 215 °C for the second.

First: CCCOc1ccccc1CN1N=C(CCC)C(=CNc2ccccc2CC)C1=O
Second: Cc1cc(S(=O)(=O)Nc2cccnc2Nc2ccccc2)c(C)cc1Cl
The melting point of the first is lower: 75.2 °C for the first, 153 to 154 °C for the second.

First: O=C(Cc1ccc(Cl)cc1Cl)c1ccc(Cl)cc1
Second: COC(=O)c1ccc(Cl)c(C(=O)NOCc2ccc(Cl)cc2)c1Cl
The melting point of the first is lower: 119 °C for the first, 120 to 121 °C for the second.

First: CCCCC1(CC)CSC2=CC=CC3=CNCC32C(c2ccccc2)=N1 (stereo not drawn)
Second: Cc1nc(-c2ccc3c(c2)NC(=O)CO3)c(-c2ccccc2)s1
The melting point of the first is lower: 145 to 146 °C for the first, 221 to 230 °C for the second.

Compared with NC(=O)NC1CCC(O)c2ccccc21 (stereo not drawn), SCCC1c2ccccc2-c2ccccc21 is lower in melting point: 170 to 176 °C for the first, 38 to 40 °C for the second.

First: CC(C)C(=O)Nc1c(C(=O)c2occc2CO)[nH]c2cc(Cl)ccc12
Second: Cc1ccc(Cl)c(Nc2ccccc2C(N)=O)c1Cl
The melting point of the first is lower: 170 to 171 °C for the first, 185 to 187 °C for the second.

First: CCC(C)NC1=NS(=O)(=O)c2cc(C(=O)O)ccc2N1 (stereo not drawn)
Second: CCSc1cc(C(=O)O)cc(N)c1Oc1ccccc1
The melting point of the first is higher: greater than 310 °C for the first, 154 to 155 °C for the second.

First: COCCn1cc2c(C3C(=O)Nc4ccc(Br)cc43)nc(NCc3cccnc3)nc2n1 (stereo not drawn)
Second: CC(=O)Nc1nc2c(NC(=O)c3ccc4cc(Br)ccc4c3)cccc2s1
The melting point of the first is higher: 300 to 301 °C for the first, 242 °C for the second.

Compared with CN1C(=O)[C@@H](CN2CCCCC2)C[C@H]1c1ccc(-c2ccccc2Cl)s1, COC(=O)C1=C(C)N(CCCN2CCCCC2)c2cc[nH]c(=O)c2C1c1ccccc1C(F)(F)F (stereo not drawn) is higher in melting point: 73 to 75 °C for the first, 168 to 170 °C for the second.

First: Nc1ccc(NC(=O)c2ccc(C(=O)Nc3ccc(N)cc3Cl)cc2)c(Cl)c1
Second: C=CCOc1nc2cccc(C(=O)OC)c2n1Cc1ccc(-c2ccccc2C#N)cc1
The melting point of the first is higher: 261 °C for the first, 118 to 119 °C for the second.

First: Clc1cncc(Oc2cccc(Cl)n2)c1
Second: NC(=O)c1cc2cc(OCC3CO3)ccc2o1 (stereo not drawn)
The melting point of the first is lower: 46 to 47 °C for the first, 153 to 155 °C for the second.

Compared with Cc1ncnc(O)c1C, Cc1ccc2c(ccn2C)c1O is lower in melting point: 120 to 121 °C for the first, 68 °C for the second.

Compared with Cc1nccn1C(c1ccccc1)(c1ccccc1)c1ccccc1Cl, FC(F)(F)c1ccc(C=Nc2c3c(nc4ccccc24)CCCC3)cc1 is higher in melting point: 177 °C for the first, 203 to 205 °C for the second.

First: Cc1cc(Cl)cc(C(=O)NCC2CC2)c1N
Second: O=C(CCC12CCC(=O)N1C(=O)CC2)OCc1ccc(Cl)cc1
The melting point of the first is lower: 127 to 128 °C for the first, 141 to 142 °C for the second.

First: Cn1cc(-c2cc(-c3cnc4[nH]cc(C(F)(F)F)c4c3)ccn2)n(-c2ccc(C(C)(C)C#N)cc2)c1=O
Second: O=[N+]([O-])c1c(-c2ccc(Cl)cc2)[nH]c(C(F)(F)F)c1-c1csc(Br)c1
The melting point of the first is lower: 159 °C for the first, 174 to 176 °C for the second.

First: O=C1OCCN1CCCN1C(=O)N2C[C@@H](Cc3ccccc3)N=C2c2[nH]c(C3CCCC3)nc21
Second: CCOC(=O)c1ccc2nc3n(c(=O)c2c1)CCC3=Cc1ccccc1C
The melting point of the first is higher: 210 to 212 °C for the first, 184 to 185 °C for the second.

First: CCCCNC(=O)[C@H](C)C[C@H](O)[C@H](CC1CCCCC1)NC(=O)[C@H](Cc1cscn1)NC(=O)[C@@H](CC(=O)N1CCCCC1)Cc1ccc(OC)cc1
Second: COCCCCCCOc1ccc(C#Cc2ccc(C(=O)O)cc2)cc1C12CC3CC(CC(C3)C1)C2
The melting point of the first is lower: 120 to 122 °C for the first, 241 to 242 °C for the second.

Compared with O=C(C(=C1NCCCS1)[N+](=O)[O-])c1ccccc1, N#Cc1ccc2c(c1)CCC=C2c1ccns1 is lower in melting point: 137 to 140 °C for the first, 77 to 81 °C for the second.

Compared with CC(C)(C)c1cc([PH](=O)O)cc(C(C)(C)C)c1O, Cc1ccc(C2OC(CO)C(O)C(O)C2O)cc1Cc1ccc(-c2ccc(F)nc2)s1 (stereo not drawn) is higher in melting point: 106 to 111 °C for the first, 130 to 132 °C for the second.

With CCOc1nc(N)nc2c1ncn2CCC(CO)CO the melting point was 150 to 152 °C.
